# Assays:
# [1] = system: mycoplasma; test: Mycoplasma disease treatment; format: in vivo; details: three sheep
# Protocol: The experiment was at four sheep farms. The sheep suffered from cough and high temperature (42° C.). When performing autopsy on dead sheep, the congestion in the lungs was clear. […] Ampicillin only affects the cell wall.
# Another 10 sick sheep from each farm were isolated and treated with 5 ml of Tylosin and Enrofloxacin.
# [2] = system: Streptococcus isolated from cow's milk; test: Streptococcus germs cultured in a lab setting
# [3] = system: HT-1080 cells (fibrosarcoma cell line); test: XTT proliferation assay on HT-1080 cells; format: cell-based; details: Homo sapiens
# [4] = system: NHDF cells (Normal Human Dermal Fibroblast cell line); test: XTT proliferation assay on NHDF cells; format: cell-based
# Protocol: FIGS. 20-23 and Tables F1-F4 relate to a study to determine the potency of novel natural extract compounds in inhibiting the proliferation of Normal Human Dermal Fibroblast cell line (NHDF cells). […] In this study: Compound I, III and IV which are arrangements of compound according to the present invention are evaluated in a XTT proliferation assay for 72 hours to determine its potency in inhibiting the proliferation of NHDF cells. Traditionally, the in-vitro determination of toxic effects of unknown compounds has been performed by counting viable cells after staining with a vital dye. The XTT system is a mean of measuring the activity of living cells via mitochondrial dehydrogenases. The XTT method is simple, accurate and yields reproducible results. […] Solutions of XTT, prepared in medium or balances salt solutions without phenol red, are yellowish in colour. Mitochondrial dehydrogenases of viable cells cleave the tetrazolium ring of XTT yielding orange formazon crystals which are soluble in aqueous solutions. The resulting orange colour is spectrophotometrically measured. The bio-reduction is XTT is inefficient but can be potentiated by the addition of an electron coupling agent such as phenazine methosulphate (PMS) to the reaction. An increase or decrease in cell numbers results in a concomitant change in the amount of formazon formed, indicating the degree of cytotoxicity caused by the test material. In the foregoing study the following kits and reagents were used: • Cells: NHDF, a Normal Human Dermal Fibroblast cell line (Lonza) • Media: FGM-2 bullet kit media • Cell culture T75 flasks (BD-Falcon-LAB353136) • 96 well cell clear tissue culture treated plates (BD-Falcon-LAB353072) • Dimethyl Sulphoxide (DMSO) (Sigma-D2650) • XT (Sigma-[…]) • PMS (Sigma-[…]) In the foregoing study, three arrangement of compound according to the present invention, which in FIGS. 20-23 and Tables F1-F4 are designated as compounds I, III and IV, were tested. In the foregoing study, the control or vehicle was sterile deionized water. In regard to experimental procedure, for seeding in a 96-well plate, the cells were re-suspended to a density of […] of complete FGM-2 Bullet kit medium. 80 μL of this cell suspension was added per well to seed 2000 cells per well. […] In the foregoing study, the following points relate to compound dilution and treatment: • 20 μL of stock (100×) was serially diluted (2×) in 20 μL of sterile deionized water. • 20 μL of each dilution was then added in triplicates in the previously seeded 96-well plate. • Cells treated with deionized water served as control. • 100 μL of complete Ham's F12 medium served as media blank for the data analysis. • 200 μL of PBS was added in all corner wells of the assay plate. Plate was then incubated for 72 hours in an incubator with 5% CO2 at 37° C. In the foregoing study, the following points relate to termination: • XTT reagent-1 mg/mL solution of XTT was made in serum-free Ham's F12 medium. […] The data was analyzed using GraphPad Prism Software. In regard to data generation in the foregoing study: • Raw data of OD values was obtained in the form of excel sheet from Victor X5 Multi-label Plate Reader. • Average of media blank and average of control was calculated. • Average media blank was subtracted from each experimental well and control.
# [5] = system: Pasteurella; test: Pasteurella disease treatment; details: second group of 10 sheep, both antibiotics together
compound,measurement,setting,value
CC1(C)S[C@@H]2[C@H](NC(=O)[C@H](N)c3ccccc3)C(=O)N2[C@H]1C(=O)O [Ampicillin],outcome of treatment,[1],they were not cured
same,killing of germs,[2],not all germs were killed
COc1cccc2c1C(=O)c1c(O)c3c(c(O)c1C2=O)C[C@@](O)(C(=O)CO)C[C@@H]3O[C@H]1C[C@H](N)[C@H](O)[C@H](C)O1 [Doxorubicin],inhibition at 0.0002 µM,[3]; Doxorubicin 0.0002 μM,16.1%
same,inhibition at 0.0005 µM,[3]; Doxorubicin 0.0005 μM,14.9%
same,inhibition at 0.0014 µM,[3]; Doxorubicin 0.0014 μM,22.1%
same,inhibition at 0.0041 µM,[3]; Doxorubicin 0.0041 μM,28.9%
same,inhibition at 0.0123 µM,[3]; Doxorubicin 0.0123 μM,63.6%
same,inhibition at 0.037 µM,[3]; Doxorubicin 0.0370 μM,76.4%
same,inhibition at 0.1111 µM,[3]; Doxorubicin 0.1111 μM,77.7%
same,inhibition at 0.3333 µM,[3]; Doxorubicin 0.3333 μM,91%
same,inhibition at 1 µM,[3]; Doxorubicin 1 μM,98.2%
same,% Inhibition,[4]; Doxorubicin 0.000 μM,24.6%
same,inhibition at 0.001 µM,"[4]; Homo sapiens, Doxorubicin 0.001 μM",17.9%
same,inhibition at 0.004 µM,"[4]; Homo sapiens, Doxorubicin 0.004 μM",25.9%
same,inhibition at 0.01 µM,"[4]; Homo sapiens, Doxorubicin 0.01 μM",26.9%
same,inhibition at 0.04 µM,"[4]; Homo sapiens, Doxorubicin 0.04 μM",33.9%
same,inhibition at 0.11 µM,"[4]; Homo sapiens, Doxorubicin 0.11 μM",37.5%
same,inhibition at 0.33 µM,"[4]; Homo sapiens, Doxorubicin 0.33 μM",68.6%
same,inhibition at 1 µM,"[4]; Homo sapiens, Doxorubicin 1 μM",86.4%
same,inhibition at 3 µM,"[4]; Homo sapiens, Doxorubicin 3 μM",57.1%
NCC[C@H](O)C(=O)N[C@@H]1C[C@H](N)[C@@H](O[C@H]2O[C@H](CN)[C@@H](O)[C@H](O)[C@H]2O)[C@H](O)[C@H]1O[C@H]1O[C@H](CO)[C@@H](O)[C@H](N)[C@H]1O [amikacin],killing of germs,[2],not all germs were killed
CC1=C(C(=O)O)N2C(=O)[C@@H](NC(=O)[C@H](N)c3ccccc3)[C@H]2SC1 [cephalexin],killing of germs,[2],not all germs were killed
O=C(O)c1cn(C2CC2)c2cc(N3CCNCC3)c(F)cc2c1=O [ciprofloxacin],killing of germs,[2],not all germs were killed
Cc1onc(-c2ccccc2Cl)c1C(=O)N[C@@H]1C(=O)N2[C@@H]1SC(C)(C)[C@@H]2C(=O)O [cloxacillin],killing of germs,[2],not all germs were killed
CCN1CCN(c2cc3c(cc2F)c(=O)c(C(=O)O)cn3C2CC2)CC1 [enrofloxacin],killing of germs,[2],not all germs were killed
same,speed of improvement versus product group,[5],slower than in the first group
CC[C@H]1OC(=O)[C@H](C)[C@@H](O[C@H]2C[C@@](C)(OC)[C@@H](O)[C@H](C)O2)[C@H](C)[C@@H](O[C@@H]2O[C@H](C)C[C@H](N(C)C)[C@H]2O)[C@](C)(O)C[C@@H](C)C(=O)[C@H](C)[C@@H](O)[C@]1(C)O [erythromycin],killing of germs,[2],not all germs were killed
[H]/N=C(/N)N[C@H]1[C@H](O)[C@@H](O)[C@H](O[C@@H]2O[C@@H](C)[C@](O)(C=O)[C@H]2O[C@@H]2O[C@@H](CO)[C@H](O)[C@@H](O)[C@@H]2NC)[C@@H](N/C(N)=N\[H])[C@@H]1O [streptomycin],killing of germs,[2],not all germs were killed
Spiramycin,killing of germs,[2],not all germs were killed
Tylozin,killing of germs,[2],not all germs were killed
gentamicin,killing of germs,[2],not all germs were killed
neomycin,killing of germs,[2],not all germs were killed
penicillin,killing of germs,[2],not all germs were killed

# From patent publication US10842829B2, “Natural product to improve immunity and combat viral diseases, bacterial diseases, fungal diseases, and cancer diseases” (priority 2017, dated 2020)
